Data on 5 molecules can be found in patent US6420352B1, “Hair loss prevention” (priority 2000, dated 2002).

Read-outs that look alike come from different tables or passages of the source.

One data set deals with scalp hair follicles. To be noted: in vivo; cited from earlier work.
The conditions of data set [1]: cited from earlier work.
In another data set the test system is age related hair loss. The note with it: stump-tail macaque monkeys; cited from earlier work.
The subject of another data set is hair loss. The data set can be described thus: Topical use for hair loss prevention, effectiveness in patients. The class given is in vivo, human. The note with it: same amount of minoxidil. The source says: […]. […] […]. After about thirty months of use, about half of the new hair growth falls out. Thus, while the user has somewhat more hair than originally, the user has less hair than […].
Minoxidil without a penetration enhancer (as available in ROGAINE™ topical minoxidil U.S.P.) produces a different kind of hair than does minoxidil used with a penetration enhancer.
Further, it is known in the art that minoxidil users experience a sudden drop in hair thickness after about thirty months of usage. I thus have sought the time at which my compounds have a sudden drop in effectiveness. […] That this function is abnormal is confirmed by its drop in effectiveness after thirty months; such a drop in efficacy indicates a “tolerance” acquired against the intervention, rather than the maintenance of a permanent, healthy state.
Using the specific formulations disclosed here, I have observed decreases in hair loss, and a consequent statistically significant increase in the amount of healthy mature hair, after 4.0-4.5 months on the frontal scalp. On the crown and back of the head, by contrast, I have observed statistically significant results after 4.5-5.0 months. The frontal scalp may react faster because it enjoys greater vascularization and blood flow than the other parts of the scalp.
I have found several surprising things about testosterone blockers. […]

For `CC(C)(C)NC(=O)[C@H]1CC[C@H]2[C@@H]3CC[C@H]4NC(=O)C=C[C@]4(C)[C@H]3CC[C@]12C` [finasteride], the “effect on scalp hair follicles / balding process” value in the data set on scalp hair follicles was “miniaturizes scalp hair follicles, reversing the balding process”.

Take `CCC(CCCCC1CCC2CC(=O)CC12)OC` (stereo not shown) [Cioteronel, hexahydro-4-(5-methoxyheptyl)-2(1H)-pentalenone]: in data set [1] (in lipid and relatively non-polar solvents), the “solubility, in words” value is recorded as “soluble”.

In the case of `CN(C)C(=O)C1CCC2C3CCC4N(C)C(=O)CCC4(C)C3CCC12C` (stereo not drawn) [17b-N,N,- dimethylcarbamoyl-4-methyl-4-aza-5α-androstan-3-one], the “age related hair loss versus untreated monkeys” value with age related hair loss is given as “significantly less age related hair loss”.

As to `CC(=O)[C@H]1CC[C@H]2[C@@H]3CCC4=CC(=O)CC[C@]4(C)[C@H]3CC[C@]12C` [Progesterone, pregn-4-ene-3, 20-dione], the “solubility, in words” value is “soluble” in data set [1] (in alcohol, acetone, dioxane, and concentrated sulfuric acid); “sparingly soluble” in data set [1] (in vegetable oils); “insoluble” in data set [1] (in water).

With `Nc1cc(N2CCCCC2)nc(N)[n+]1[O-]` [minoxidil, 6-(1-piperidinyl)-2,4-pyrimidinediamaine 3-oxide], in the data set with hair loss, the “share of patients on whom the preparation is effective” value was 8%.
